We go through 5 compounds from patent publication US9663464B2, “Carbazole derivatives acting on 5-HT7 receptor” (KOREA INSTITUTE OF SCIENCE AND TECHNOLOGY, priority 2015, dated 2017).

The target of test [1] is T1, human gene recombinant 5-HT7 receptor expressed in CHO cells (Homo sapiens, UniProt P34969).
T1 construct: expressed in transfected cells; host or cells: CHO cells (membrane preparation)
The experiment in a line: Binding affinity for the 5-HT7 serotonin receptor ([3H]LSD radioligand). The gist of the method: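 Membranes from CHO cells expressing recombinant human 5-HT7 incubated with 1 nM [3H]LSD and test compound in 50 mM Tris-HCl pH 7.4, 10 mM MgCl2, 0.1 mM EDTA, 90 min at 25° C; filtration and scintillation counting. Nonspecific binding with mianserin; Ki by nonlinear regression over 10-11 concentrations; % inhibition at 10 μM.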

The target of test [2] is 5-HT1E (Homo sapiens, UniProt P28566). The test is described as follows: 5-HT1E receptor inhibition (Table 1). In kind it is binding.
For test [3], the target named is T2, 5-HT2C (Homo sapiens, UniProt P28335).
T2 sequence (P28335 33-458): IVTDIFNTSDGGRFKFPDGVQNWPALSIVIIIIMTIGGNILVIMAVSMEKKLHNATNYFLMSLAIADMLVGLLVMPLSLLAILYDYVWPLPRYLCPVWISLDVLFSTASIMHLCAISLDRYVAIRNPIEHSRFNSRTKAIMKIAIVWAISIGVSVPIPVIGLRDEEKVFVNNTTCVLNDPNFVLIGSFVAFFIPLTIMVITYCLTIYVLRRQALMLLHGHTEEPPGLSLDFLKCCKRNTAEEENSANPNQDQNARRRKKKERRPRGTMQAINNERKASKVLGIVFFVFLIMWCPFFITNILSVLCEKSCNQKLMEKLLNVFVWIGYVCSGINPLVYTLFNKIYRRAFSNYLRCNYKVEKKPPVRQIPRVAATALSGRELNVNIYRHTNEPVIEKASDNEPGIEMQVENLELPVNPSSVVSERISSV
The experiment in a line: 5-HT2C receptor inhibition/binding (Tables 1-3).

The subject of test [4] is Rats. The test is described as follows: Antagonism against migraine: leakage of fluorescent protein (FITC-BSA) from meningeal vessels. In kind it is in vivo. The conditions noted are these: 5 mg/kg to 20 mg/kg. How it is done:
It is known that inflammatory proteins leaked from meningeal vessels by 5-HT are implicated in causing migraine. The amount of the proteins leaked in the presence of the compound of Example 2.10 was measured and the preventive effect of the compound on migraine was assessed by a partial modification of the method described in the literature [Rachel A. Spokes, Vicki C. Middlefell, European Journal of Pharmacology (1995) 281, 75-79]. SB-269970, which is known as a 5-HT7 receptor antagonizing compound (J. Med. Chem. (2000) 43, 342-345), was used as a comparative compound. A negative control free of […] was prepared. The fluorescence intensity of the negative control was defined as a reference value. As a positive control, physiological saline was added instead of the compound of Example 2-10.
Rats (350-450 g) were administered urethane (1.5 g/kg) intraperitoneally. 50 mg/kg of a fluorescent protein (FITC-BSA) was administered intravenously through a cannula introduced into the saphenous vein, and 1 μM […] was administered intravenously. SB-269970 and the compound of Example 2.10 were administered intraperitoneally. The cerebral lobes were separated and the meninges were drawn from each rat. The meninges were allowed to stand at 37° C. for 16 h in the presence of physiological saline at pH 11, followed by centrifugation. The supernatant was plated on plates. The fluorescence intensity was measured using a fluorescence leader (excitation wavelength 485 nm, […] wavelength 530 nm) and the meninges were weighed. The fluorescence intensity per mg of the meningeal proteins was calculated.

Test [5] deals with 5-HT6 (Homo sapiens, UniProt P50406). The experiment in a line: 5-HT6 receptor inhibition/binding (Tables 2-3). The conditions noted are these: 10 μM.
The target of test [6] is T3, 5-HT1A (Homo sapiens, UniProt P08908).
T3 sequence (P08908 1-422): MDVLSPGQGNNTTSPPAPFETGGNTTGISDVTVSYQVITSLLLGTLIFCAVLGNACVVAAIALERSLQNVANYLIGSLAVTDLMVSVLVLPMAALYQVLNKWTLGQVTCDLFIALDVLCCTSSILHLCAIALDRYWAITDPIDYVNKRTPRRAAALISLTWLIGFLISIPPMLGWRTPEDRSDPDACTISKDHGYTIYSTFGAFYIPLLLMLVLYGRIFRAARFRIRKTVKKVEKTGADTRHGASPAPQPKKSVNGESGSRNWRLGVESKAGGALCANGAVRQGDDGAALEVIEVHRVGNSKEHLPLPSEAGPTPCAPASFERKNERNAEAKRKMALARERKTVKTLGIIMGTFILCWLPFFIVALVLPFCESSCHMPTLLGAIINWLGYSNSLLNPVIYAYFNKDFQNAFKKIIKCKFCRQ
The experiment in a line: 5-HT1A receptor inhibition (Table 3). In kind it is binding.

Structures can show the parent of a compound that is named as a salt.

T1 sequence (P34969 whole entry): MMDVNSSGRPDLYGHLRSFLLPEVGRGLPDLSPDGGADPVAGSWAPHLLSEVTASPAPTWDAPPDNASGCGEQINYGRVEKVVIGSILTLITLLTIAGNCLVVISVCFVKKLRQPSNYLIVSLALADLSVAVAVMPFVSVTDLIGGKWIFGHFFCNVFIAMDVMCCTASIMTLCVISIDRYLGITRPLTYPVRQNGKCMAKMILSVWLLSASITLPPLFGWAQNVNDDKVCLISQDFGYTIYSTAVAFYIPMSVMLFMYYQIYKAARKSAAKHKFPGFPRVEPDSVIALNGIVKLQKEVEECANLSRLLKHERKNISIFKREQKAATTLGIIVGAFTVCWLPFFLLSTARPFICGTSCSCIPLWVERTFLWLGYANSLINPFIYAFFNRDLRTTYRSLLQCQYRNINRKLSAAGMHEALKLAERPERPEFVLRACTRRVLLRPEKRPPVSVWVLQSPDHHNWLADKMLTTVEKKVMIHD
Chain of 5-HT6 (P50406 whole entry, species assumed): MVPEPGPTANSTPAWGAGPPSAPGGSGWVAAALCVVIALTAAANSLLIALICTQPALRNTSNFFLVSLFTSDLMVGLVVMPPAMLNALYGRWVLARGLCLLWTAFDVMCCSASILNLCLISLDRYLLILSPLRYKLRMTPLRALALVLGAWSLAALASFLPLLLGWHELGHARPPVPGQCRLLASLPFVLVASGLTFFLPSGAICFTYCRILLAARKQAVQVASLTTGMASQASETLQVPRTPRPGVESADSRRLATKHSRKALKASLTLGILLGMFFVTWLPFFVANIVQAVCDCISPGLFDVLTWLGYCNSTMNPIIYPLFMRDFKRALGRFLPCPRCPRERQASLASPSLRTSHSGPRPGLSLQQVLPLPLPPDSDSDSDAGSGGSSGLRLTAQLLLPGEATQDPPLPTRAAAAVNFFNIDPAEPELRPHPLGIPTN
Chain of 5-HT1E (P28566 whole entry, species assumed): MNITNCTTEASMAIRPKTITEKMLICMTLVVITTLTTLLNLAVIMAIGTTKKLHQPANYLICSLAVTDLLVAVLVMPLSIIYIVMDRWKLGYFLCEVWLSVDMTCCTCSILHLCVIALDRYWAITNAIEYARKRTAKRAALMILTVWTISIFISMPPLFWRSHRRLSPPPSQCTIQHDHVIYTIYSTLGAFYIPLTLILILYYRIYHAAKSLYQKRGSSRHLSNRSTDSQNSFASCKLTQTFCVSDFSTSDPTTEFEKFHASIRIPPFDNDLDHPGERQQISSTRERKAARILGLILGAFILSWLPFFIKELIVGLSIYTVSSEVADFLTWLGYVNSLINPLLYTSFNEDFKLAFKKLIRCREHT

A word on the inhibition: it is the drop in the measured response relative to a control, in per cent. One may read the Ki as the equilibrium dissociation constant of an inhibitor or competing ligand from its target. Turning to `CC1CCN(CCCCCC(=O)n2c3ccccc3c3ccccc32)CC1` [Example 2.4, 1-(9H-carbazol-9-yl)-6-(4-methylpiperidin-1-yl)hexan-1-one], the inhibition at 10 µM in test [1] is 94.2%; in test [2] it was -11.6%; in test [3], 78.5%. This compound displayed a Ki in test [3] of 878 nM. Besides, the “protein leakage vs reference value” in test [4] is listed as “suppressed to a level close to the reference value”.

In the case of `O=C(CCCCCN1CCN(c2noc3ccccc23)CC1)n1c2ccccc2c2ccccc21` [Example 2.14, 6-(4-Benzo[d]isoxazol-3-yl)piperazin-1-yl)-1-(9H-carbazol-9-yl)hexan-1-one hydrochloride], in test [1], the Ki was found to be 73 nM. In addition, the inhibition at 10 µM in test [1] is 94.1%; in test [3] it was 63.7%; in test [5] it was 81.3%; in test [6], 80.5%. In addition, the “protein leakage vs reference value” in test [4] was “suppressed to a level close to the reference value”.

Regarding `O=C(CCCCCN1CCN(c2ccccc2O)CC1)n1c2ccccc2c2ccccc21` [Example 2.15, 1-(9H-carbazol-9-yl)-6-(4-(2-hydroxyphenyl)piperazin-1-yl)hexan-1-one], the Ki in test [1] stood at 38 nM. The inhibition at 10 µM was 100% in test [1], 73.5% in test [3], 85.3% in test [5] and 94.2% in test [6]. The “protein leakage vs reference value” in test [4] is given as “suppressed to a level close to the reference value”.

Take `COc1ccccc1N1CCN(CCCCC(=O)n2c3ccccc3c3ccccc32)CC1` [Example 2.31, 1-(9H-carbazol-9-yl)-5-(4-(2-methoxyphenyl)piperazin-1-yl)pentan-1-one hydrochloride]: the Ki in test [1] turned out to be 30 nM. Further, the inhibition at 10 µM stood at 99.6% in test [1], 62.6% in test [3], 44.4% in test [5] and 103% in test [6]. Further, in test [4], the “protein leakage vs reference value” is “suppressed to a level close to the reference value”.

With `Oc1ccccc1N1CCN(CCCCn2c3ccccc3c3ccccc32)CC1` [Example 2.55, 2-(4-(4-(9H-carbazol-9-yl)butyl)piperazin-1-yl)phenol], the Ki in test [1] was 55 nM. Moreover, the inhibition at 10 µM in test [1] was 95.8%; in test [5], 77.8%; in test [6], 103%. Further, the “protein leakage vs reference value” in test [4] is reported as “suppressed to a level close to the reference value”.
